Experimental data reported in patent publication US8211646B1, “Methods of treating ovarian cancer by modulating SnoN” (University of South Florida, priority 2008, dated 2012).

Assays:
Assay type in all cases: cell-based
[1] = test system: immortalized and cancer ovarian cell lines; assay: Boyden chamber migration assay; details: 5 μM As2O3 6 hours, then 18 hours in Boyden chamber
Experimental: FIGS. 25(A) through (C) are graphs showing arsenic trioxide induces cell death and inhibits migratory potential. HEY cells were treated for 6 hours with 5 μM As2O3 and seeded at 25,000 cells into Boyden chamber inserts for 18 hours. Cells were stained with crystal violet and counted.
TAg/hTert immortalized normal ovarian epithelial cells (TIOSE: T29 and T80) and ovarian cancer cells (OVCAR8, OVCA429, SKOV3, and HEY) were transfected with siRNA were counted 24 h post-transfection and 5000 cells were plated in each well of a 96-well plate maintained in 10% FBS. At various days, cells were fixed and stained with crystal violet solution, dissolved in Sorenson's buffer, and absorbance measured at 570 nm. To assess migration, cells transfected with siRNA were counted 24 h post-transfection and seeded into Boyden chamber inserts in serum-free media. FBS in the lower chamber media (RPMI 1640) was used as a chemoattractant for 24 h. The cells that migrated onto the lower membrane were stained with crystal violet, photographed, and counted.

[2] = test system: glutathione (GSH); assay: GSH-Glo glutathione assay; details: T80, HEY, SKOV3; 18 hours
Experimental: Glutathione (GSH) was measured using the GSH Glo kit (Promega). Briefly, T80, HEY, and SKOV3 ovarian cells were plated at 5000 cells/well in opaque white 96 well plates. Following overnight attachment, cells were treated with As2O3 for 18 hours. Following cell treatments, the media was discarded and fresh PBS was added for washout followed by the addition of 100 μl of GSH-Glo reagent. Following a 2 minute shake, the cells were incubated at room temperature for 30 minutes followed by the addition of reconstituted luciferase detection reagent. The cells were incubated for a further 15 minutes at room temperature and the plate was read on a Biotek luminescence plate reader. All measurements were performed in triplicate.

[3] = test system: ovarian cancer cells; assay: Cell titer glo cell viability assay
Experimental: Measurement of Intracellular ATP Levels. T80, HEY, and SKOV3 ovarian cells were seeded in triplicate for each treatment group at 5000 cells per well into each well of a 96 well white-opaque plate. Following overnight cell attachment, cells were treated for 18 hours with appropriate doses of arsenic trioxide or geldanamycin (0 mM, 2 μM, 5 μM, 10 μM, 25 μM, and 50 μM). Following termination of the cell treatments, the media was removed from the wells and replaced with 100 μl of phosphate-buffered saline (PBS). The plate was equilibrated to room temperature, 100 μl of Cell-Titer Glo reagent (Promega, Madison, Wis.) was added, and mixed on a plate shaker for 2 minutes. The plate was further incubated for 10 minutes at room temperature prior to reading with a Biotek luminescence plate reader to obtain relative light unit (RLU) measurements. Empty wells (containing no cells) were utilized as a correction for background luminescence. All experiments were performed in triplicate.

[4] = test system: HSP27; assay: Western analysis of HSP27; details: HEY, 18 hours As2O3
Experimental: Proteins were resolved on an 8%, 12%, or 15% SDS-PAGE gel (as appropriate) and electrophoretically transferred to polyvinyldifluoride (PVDF) membranes. After blocking with 5% (w/v) milk in TBST (Tris-Buffered Saline containing 0.1% Tween-20) for one hour at room temperature, membranes were incubated with primary antibodies (at appropriate dilution) overnight at 4° C., followed by extensive washing and incubation for 1 hour with the appropriate horseradish peroxidase-conjugated secondary antibodies (BioRad, Hercules, Calif.). Blots were washed extensively. A rabbit polyclonal EVI1 antibody was obtained (1:3000 dilution, St. Jude's Children's Hospital, Memphis, Tenn.). SnoN rabbit polyclonal (1:1000 dilution), PML, and p21 SMURF2 rabbit polyclonal (1:500 dilution), MRP1 mouse monoclonal (1:500 dilution) and GAPDH mouse monoclonal (1:250 dilution) antibodies were obtained from Santa Cruz Biotechnology (Santa Cruz, Calif.). TGFβRII rabbit polyclonal (1:1000 dilution) antibody was obtained from Strategic Diagnostics (Newark, Del.). Smad2/3 rabbit polyclonal (1:1000 dilution), Beclin-1 rabbit polyclonal (1:1000 dilution), AKT rabbit polyclonal (1:1000 dilution), TAK1 rabbit polyclonal (1:1000 dilution), PARP rabbit polyclonal (1:1000 dilution), Beclin-1 rabbit polyclonal (1:1000 dilution), caspase-3 rabbit polyclonal (1:1000) which detects the pro-caspase form, and ATG5 rabbit polyclonal (1:1000 dilution), LC3-II rabbit polyclonal (1:1000 dilution) antibodies were obtained from Cell Signaling Technology (Danvers, Mass.). […]
The clinical inhibitors As2O3, geldanamycin (17-AAG) (dissolved in dimethylsulfoxide [DMSO]), and MG132 (dissolved in DMSO) were obtained from Sigma-Aldrich (St. Louis, Mo.), Fisher Scientific (Pittsburgh, Pa.), and Alexis Biochemicals (Farmingdale, N.Y.), respectively. […] After the appropriate incubation time (6 or 18 hours), cell lysates were collected, protein quantified, and SDS-PAGE/western analysis was performed. In addition, for selected studies, RNA was isolated, quantified, and used for qPCR analysis.

[5] = test system: TAK1, SMAD2/3, TGFβRII, AKT, phospho-SMAD2; assay: Western analysis of other TGFβ signaling mediators
Experimental: Proteins were resolved on an 8%, 12%, or 15% SDS-PAGE gel (as appropriate) and electrophoretically transferred to polyvinyldifluoride (PVDF) membranes. After blocking with 5% (w/v) milk in TBST (Tris-Buffered Saline containing 0.1% Tween-20) for one hour at room temperature, membranes were incubated with primary antibodies (at appropriate dilution) overnight at 4° C., followed by extensive washing and incubation for 1 hour with the appropriate horseradish peroxidase-conjugated secondary antibodies (BioRad, Hercules, Calif.). Blots were washed extensively. A rabbit polyclonal EVI1 antibody was obtained (1:3000 dilution, St. Jude's Children's Hospital, Memphis, Tenn.). SnoN rabbit polyclonal (1:1000 dilution), PML, and p21 SMURF2 rabbit polyclonal (1:500 dilution), MRP1 mouse monoclonal (1:500 dilution) and GAPDH mouse monoclonal (1:250 dilution) antibodies were obtained from Santa Cruz Biotechnology (Santa Cruz, Calif.). TGFβRII rabbit polyclonal (1:1000 dilution) antibody was obtained from Strategic Diagnostics (Newark, Del.). Smad2/3 rabbit polyclonal (1:1000 dilution), Beclin-1 rabbit polyclonal (1:1000 dilution), AKT rabbit polyclonal (1:1000 dilution), TAK1 rabbit polyclonal (1:1000 dilution), PARP rabbit polyclonal (1:1000 dilution), Beclin-1 rabbit polyclonal (1:1000 dilution), caspase-3 rabbit polyclonal (1:1000) which detects the pro-caspase form, and ATG5 rabbit polyclonal (1:1000 dilution), LC3-II rabbit polyclonal (1:1000 dilution) antibodies were obtained from Cell Signaling Technology (Danvers, Mass.). The HSP27 mouse monoclonal (1:1000 dilution) antibody was obtained from Stressgen (Ann Arbor, Mich.). Blots were developed using chemiluminescence substrates (Amersham Piscataway, N.J. or BioRad, Hercules, Calif.). Monoclonal PAI-1 antibody was obtained from BD Pharmingen. PSMAD2, total SMAD2/3, p-ERK, p-AKT, and total AKT antibodies were obtained from Cell Signaling Technology. A monoclonal antibody against Arkadia was obtained from Abnova (Taiwan).
Densitometric analysis was performed using the HP Scanjet 5590 and the Image J program (Image Processing and Analysis in Java, NIH Image Software). Bands were selected and the intensity values were normalized to those for GAPDH. The values are presented as fold-changes relative to control siRNA treated cells.
The clinical inhibitors As2O3, geldanamycin (17-AAG) (dissolved in dimethylsulfoxide [DMSO]), and MG132 (dissolved in DMSO) were obtained from Sigma-Aldrich (St. Louis, Mo.), Fisher Scientific (Pittsburgh, Pa.), and Alexis Biochemicals (Farmingdale, N.Y.), respectively. N-acetyl-L-cysteine (NAC; dissolved in media) and Bortezomib (PS-341; dissolved in DMSO) were obtained from Fisher Scientific. 3-Methyladenine (3-MA; dissolved in media) was obtained from MP Biomedicals (Solon, Ohio). Tiron (4,5-Dihydroxy-1,3-benzenedisulfonic acid, dissolved in media) was obtained from Fisher Scientific. zVAD-fmk (dissolved in DMSO) and bafilomycin A (dissolved in DMSO) was obtained from Axxora LLC (San Diego, Calif.). Bovine catalase was obtained from Sigma-Aldrich. HBED and Mn TBAP was obtained from ENZO Life Sciences (Farmingdale, N.Y.). Ovarian cells were plated in 6-well plates at 250,000 cells per well and grown in complete medium. The following day, the cells were treated with 5 μM MG132, As2O3 (between 2-50 μM), 17-AAG (between 2-50 μM), NAC (Fisher Scientific, between 25 μM to 1 mM), Tiron (between 25 μM to 1 mM), 3-MA (0.1 mM to 10 mM), or zVAD-fmk (25 μM to 100 μM). For control cells, DMSO (a final concentration of <0.5%) was added to compare appropriately to drugs dissolved in DMSO. After the appropriate incubation time (6 or 18 hours), cell lysates were collected, protein quantified, and SDS-PAGE/western analysis was performed. In addition, for selected studies, RNA was isolated, quantified, and used for qPCR analysis.

In the case of Arsenic trioxide [As2O3], the “reduction of migratory potential” value [1] is reported as “more than fifty percent”, the GSH levels [2] is reported as “markedly reduced” and the “reduction of cell growth (cellular viability)” value ([3]; 25 μM, 18 hour treatment, relative to control cells) is reported as 50%. The “sensitivity of cellular viability to As2O3” value ([3]; SKOV3 (high EVI1) compared to T80 (low EVI1), 2-50 μM, 18 hours) was “more resistant”, the HSP27 expression [4] was “increased” and the “TAK1, SMAD2/3, TGFβRII and AKT protein” value ([5]; HEY and OVCA429, 18 hours, increasing doses) was “markedly reduced”. For the same substance, the “EVI1, TAK1, SMAD2/3, TGFβRII expression levels” value ([5]; HEY, 18 hours As2O3) was “Dramatic decreases”.
